Test results: patent US5631247A, “Compounds and compositions with nitrogen-containing non-basic side chains” (Eli Lilly and Company, priority 1996, dated 1997)
Where “and” joins values, the source holds several entries; their conditions need not be identical. Equal values may be shown once.

How the values were obtained:
uterus = assay: Wet uterine weight in ovariectomized rats (four day dosing); format: in vivo, female Sprague Dawley rats
Description: (§1) In the examples illustrating the methods, a post-menopausal model was used in which effects of different treatments upon various biological parameters were determined, including serum cholesterol concentration, uterine weight, eosinophil peroxidase activity, MCF-7 cell proliferation, and bone density.
(§2) Animals were dosed daily for 4 days. […] A blood sample was collected by cardiac puncture.
(§3) Data presented in Table 1 below show comparative results among control ovariectomized rats, rats treated with EE2, and rats treated with certain compounds of the present invention. […] This uterine response to estrogen is well recognized in the art.
(§4) The data presented in Table 1 reflect the response of 5 to 6 rats per treatment.

eosinophil peroxidase = assay: Uterine eosinophil peroxidase (EPO) assay in ovariectomized rats (four day dosing); format: in vivo, female Sprague Dawley rats; design: Uterine EPO (Vmax): unit not given here; conditions: oral, OVX rats; for Uterine EPO (Vmax): daily for 4 days
Description: as §1, §2, §4

[1] = test system: MCF-7 breast adenocarcinoma cells; assay: MCF-7 proliferation assay (tritiated thymidine); format: cell-based; conditions: Homo sapiens, MCF7, 48 hours with drug, read-out: ED50 (the source's name)
Description: MCF-7 breast adenocarcinoma cells (ATCC HTB 22) were maintained in MEM (minimal essential medium, phenol red-free, Sigma, St. Louis, Mo.) supplemented with 10% fetal bovine serum (FBS) (V/V), L-glutamine (2 mM), sodium pyruvate (1 mM), HEPES {(N-[2-hydroxyethyl]piperazine-N'-[2-ethanesulfonic acid]10 mM}, non-essential amino acids and bovine insulin (1 μg/ml) (maintenance medium). Ten days prior to assay, MCF-7 cells were switched to maintenance medium supplemented with 10% dextrancoated charcoal stripped fetal bovine serum (DCC-FBS) assay medium) in place of 10% FBS to deplete internal stores of steroids. MCF-7 cells were removed from maintenance flasks using cell dissociation medium (Ca++/Mg++ free HBSS (phenol red-free) supplemented with 10 mM HEPES and 2 mM EDTA). Cells were washed twice with assay medium and adjusted to 80,000 cells/mi. Approximately […] (8,000 cells) were added to flat-bottom microculture wells (Costar 3596) and incubated at 37° C. in a 5% CO2 humidified incubator for 48 hours to allow for cell adherence and equilibration after transfer. Serial dilutions of drugs or DMSO as a diluent control were prepared in assay medium and […] to triplicate microcultures followed by 50 ml assay medium for a final volume of […]. After an additional 48 hours at 37° C. in a 5% CO2 humidified incubator, microcultures were pulsed with tritiated thymidine (1 uCi/well) for 4 hours. Cultures were terminated by freezing at -70° C. for 24 hours followed by thawing and harvesting of microcultures. Samples were counted by liquid scintillation. Results in Table 3 below show the ED50 for certain compounds of the present invention.

serum cholesterol = assay: Serum cholesterol in ovariectomized rats (post-menopausal rat model, four day dosing); format: in vivo, female Sprague Dawley rats; conditions: oral; for Serum Cholesterol (% dec. OVX): daily for 4 days, decrease vs OVX control
Description: as §1, §2
Blood samples were allowed to clot at room temperature for 2 hours, and serum was obtained following centrifugation for 10 minutes at 3000 rpm. Serum cholesterol was determined using a Boshringer Mannheim Diagnostics high performance cholesterol assay. Briefly the cholesterol was oxidized to cholest-4-en-3-one and hydrogen peroxide. The hydrogen peroxide was then reacted with phenol and 4-aminophenazone in the presence of peroxidase to produce a p-quinone imine dye, which was read spectrophotemetrically at 500 nm. Cholesterol concentration was then calculated against a standard curve. The entire assay was automated using a Biomek Automated Workstation.
as §3, §4

tibia = assay: Bone density assay (35 day dosing, tibia, single photon absorptiometry); format: in vivo, female Sprague Dawley rats; conditions: OVX rats, oral in 20% hydroxypropyl β-cyclodextrin, daily for 35 days
Description: Following the General Preparation procedure described above, the rats were treated daily for 35 days (6 rats per treatment group) and sacrificed by decapitation on the 36th day. The 35 day time period was sufficient to allow maximal effect on bone density, measured as described herein. At the time of sacrifice, the uteri were removed, dissected free of extraneous tissue, and the fluid contents were expelled before determination of wet weight in order to confirm estrogen deficiency associated with complete ovariectomy. […] The uteri were then placed in 10% neutral buffered formalin to allow for subsequent histological analysis. The right tibias were excised and scanned at the distal metaphysis 1 mm from the patellar groove with single photon absorptiometry. Results of the densitometer measurements represent a calculation of bone density as a function of the bone mineral content and bone width. In accordance with the procedures outlined above, compounds of the present invention and EE2 in 20% hydroxypropyl β-cyclodextrin were orally administered to test animals.

[2] = Rattus norvegicus, po, 96 h, daily for 4 days, increase vs OVX control, read-out: Uterine Weight (% inc. OVX)

IC50 [1] [nM]	Compound	change in vivo at 0.1 mg/kg (uterus; [2]) [%]	change in vivo at 1 mg/kg (uterus; [2]) [%]	change in vivo at 10 mg/kg (uterus; [2]) [%]	Uterine EPO (Vmax) (eosinophil peroxidase; 0.1 mg/kg)	Uterine EPO (Vmax) (eosinophil peroxidase; 1 mg/kg)	Uterine EPO (Vmax) (eosinophil peroxidase; 10 mg/kg)	effect on serum cholesterol (in words) (serum cholesterol; OVX rats, 4 days, EE2 at 0.1 mg/Kg/day)	effect on uterine weight (in words) (uterus; OVX rats, oral, 4 days, EE2 at 0.1 mg/Kg/day)	eosinophil infiltration into the uterus (in words) (eosinophil peroxidase; 4 days, by eosinophil peroxidase activity)	effect on bone loss / tibia density (in words) (tibia)	Serum Cholesterol (% dec. OVX) (serum cholesterol; 1 mg/kg)	Serum Cholesterol (% dec. OVX) (serum cholesterol; 10 mg/kg) [%]	change in vivo at 0.01 mg/kg (uterus; Rattus norvegicus, po, 96 h, 0.01 mg/kg, daily for 4 days, increase vs OVX control, read-out: Uterine Weight (% inc. OVX)) [%]	Uterine EPO (Vmax) (eosinophil peroxidase; 0.01 mg/kg)
> 1000	O=C(c1ccc(OCCN2C(=O)CCC2=O)cc1)c1c(-c2ccc(O)cc2)sc2cc(O)ccc12 [Compound 13]	22.2	7.2	-4	1.9	1.7	2.5								
0.05	N#CCOc1ccc(C(=O)c2c(-c3ccc(O)cc3)sc3cc(O)ccc23)cc1 [Compound 14]	18.8	14.6	125	3.3	2.4	145.8								
4	CC(C)(C)C(=O)N1CCC(Oc2ccc(C(=O)c3c(-c4ccc(O)cc4)sc4cc(O)ccc34)cc2)CC1 [Compound 23]	-4.3	0.8	22.3	1.6	3.8	6.7								
0.1	O=C(NCCOc1ccc(C(=O)c2c(-c3ccc(O)cc3)sc3cc(O)ccc23)cc1)NC1CCCCC1 [Compound 20]	-29.9	-27.4	-32.7	3.0	2.5	2.9								
0.1	CC(=O)N(CCOc1ccc(C(=O)c2c(-c3ccc(O)cc3)sc3cc(O)ccc23)cc1)C1CCCCC1 [Compound 19]	7	-25.5	47	5.4	3.7	29.3								
0.02	CC(C#N)Oc1ccc(C(=O)c2c(-c3ccc(O)cc3)sc3cc(O)ccc23)cc1 (stereo not drawn) [Compound 16]	0.7	27.4	99.2	2.3	3.9									
500	O=C(NCCOc1ccc(C(=O)c2c(-c3ccc(O)cc3)sc3cc(O)ccc23)cc1)c1ccccc1 [Compound 18]	16.1	25.7	12.6	3.2	3.6	3.6								
0.01	CC(C)(C)C(=O)N1CCCCC1COc1ccc(C(=O)c2c(-c3ccc(O)cc3)sc3cc(O)ccc23)cc1 (stereo not drawn) [Compound 22]	1.9	19.6	46.9	3.5	20.0	69.5								

Further lines, the compound ahead of its results:

Compound	IC50 [1] [nM]	change in vivo at 0.1 mg/kg (uterus; [2]) [%]	change in vivo at 1 mg/kg (uterus; [2]) [%]	change in vivo at 10 mg/kg (uterus; [2]) [%]	Uterine EPO (Vmax) (eosinophil peroxidase; 0.1 mg/kg)	Uterine EPO (Vmax) (eosinophil peroxidase; 1 mg/kg)	Uterine EPO (Vmax) (eosinophil peroxidase; 10 mg/kg)	effect on serum cholesterol (in words) (serum cholesterol; OVX rats, 4 days, EE2 at 0.1 mg/Kg/day)	effect on uterine weight (in words) (uterus; OVX rats, oral, 4 days, EE2 at 0.1 mg/Kg/day)	eosinophil infiltration into the uterus (in words) (eosinophil peroxidase; 4 days, by eosinophil peroxidase activity)	effect on bone loss / tibia density (in words) (tibia)	Serum Cholesterol (% dec. OVX) (serum cholesterol; 1 mg/kg)	Serum Cholesterol (% dec. OVX) (serum cholesterol; 10 mg/kg) [%]	change in vivo at 0.01 mg/kg (uterus; Rattus norvegicus, po, 96 h, 0.01 mg/kg, daily for 4 days, increase vs OVX control, read-out: Uterine Weight (% inc. OVX)) [%]	Uterine EPO (Vmax) (eosinophil peroxidase; 0.01 mg/kg)
O=C(c1ccc(OCCNC(=O)C2CCCCC2)cc1)c1c(-c2ccc(O)cc2)sc2cc(O)ccc12 [Compound 21]		-5.5	-11.5	8.6	3.1	2.6	2.4								
O=C(c1ccc(OCCN2CCCC2=O)cc1)c1c(-c2ccc(O)cc2)sc2cc(O)ccc12 [Compound 6]		-9	15.4	40.3	3.6	1.4	3.7								
CC(=O)NCCOc1ccc(C(=O)c2c(-c3ccc(O)cc3)sc3cc(O)ccc23)cc1 [Compound 26]		-17.5	-28.8	25.8	1.3	0.7									
O=C(c1ccc(OCC(=O)N2CCCCC2)cc1)c1c(-c2ccc(O)cc2)sc2cc(O)ccc12 [Compound 9]	10	-10	6.5	51.7	2.8	3.6	32								
CN(C)C(=O)COc1ccc(C(=O)c2c(-c3ccc(O)cc3)sc3cc(O)ccc23)cc1 [Compound 12]		-7.7	15.4	60.7	3.7	6.7	122.3								
C#C[C@]1(O)CC[C@H]2[C@@H]3CCc4cc(O)ccc4[C@H]3CC[C@@]21C [ethynyl estradiol, 17α-Ethynyl estradiol, reference compound]		235			120.0			caused a decrease in serum cholesterol	substantially greater than the uterine weight of ovariectomized test animals	caused a substantial, expected increase in eosinophil infiltration	prevented this loss				
O=C(c1ccc(OCC(=O)N2CCCC2)cc1)c1c(-c2ccc(O)cc2)sc2cc(O)ccc12 [Compound 8]	10											69.6% and 39.4%	64.5	-22.9	3.5
CCCCN(C)C(=O)COc1ccc(C(=O)c2c(-c3ccc(O)cc3)sc3cc(O)ccc23)cc1 [Compound 10]	50	1.5	-6.7	38	4.3	3.1	17.0								
O=C(c1ccc(OCCN2CCCCC2=O)cc1)c1c(-c2ccc(O)cc2)sc2cc(O)ccc12 [Compound 3]	600	13.3	17.8	57.6	8.0	7.8	8.9								
COc1ccc(-c2sc3cc(OC)ccc3c2C(=O)c2ccc(OCC(=O)N3CCCCC3)cc2)cc1 [Compound 7]	> 1000	-0.5	-16.2	8.4	5.2	3.7	4.7								
